Results reported in patent US10500209B2, “Quinazolinones as bromodomain inhibitors” (Zenith Epigenetics Ltd., priority 2013, dated 2019).

Tests used:
[1] = target: T1, Brd4 bromodomain 1 (BRD4(1)) (Homo sapiens, UniProt O60885); test: Inhibition of tetra-acetylated histone H4 binding to BET bromodomains (TR-FRET); design: key: Active: Compounds with an IC50 value less than 30 μM were deemed to be active.; Not Active: Compounds with an IC50 value less than 30 μM were deemed to be active; conditions: first bromodomain of Brd4, tetra-acetylated histone H4 peptide
T1 construct: made in house; host or cells: E. coli BL21(DE3)
Description: Proteins were cloned and overexpressed with a N-terminal 6×His tag, then purified by nickel affinity followed by size exclusion chromatography. Briefly, E. coli BL21(DE3) cells were transformed with a recombinant expression vector encoding N-terminally Nickel affinity tagged bromodomains from Brd2, Brd3, Brd4. Cell cultures were incubated at 37° C. with shaking to the appropriate density and induced overnight with IPTG. The supernatant of lysed cells was loaded onto Ni-IDA column for purification. Eluted protein is pooled, concentrated and further purified by size exclusion chromatography. Fractions representing monomeric protein were pooled, concentrated, aliquoted, and frozen at −80° C. for use in subsequent experiments.
Binding of tetra-acetylated histone H4 and BET bromodomains was confirmed by a Time Resolved Fluorescence Resonance Energy Transfer (TR-FRET) method. N-terminally His-tagged bromodomains (200 nM) and biotinylated tetra-acetylated histone H4 peptide (25-50 nM, Millipore) were incubated in the presence of Europium Cryptate-labeled streptavidin (Cisbio Cat. #610SAKLB) and XL665-labeled monoclonal anti-His antibody (Cisbio Cat. #61HISXLB) in a white 96 well microtiter plate (Greiner). For inhibition assays, serially diluted test compound was added to these reactions in a 0.2% final concentration of DMSO. Final buffer concentrations were 30 mM HEPES pH 7.4, 30 mM NaCl, 0.3 mM CHAPS, 20 mM phosphate pH 7.0, 320 mM KF, 0.08% BSA). After a 2-h incubation at room temperature, the fluorescence by FRET was measured at 665 and 620 nm by a SynergyH4 plate reader (Biotek). The binding inhibitory activity was shown by a decrease in 665 nm fluorescence relative to 620 nm. IC50 values were determined from a dose response curve.

human AML MV-4-11 cells = test: Inhibition of cell proliferation in cancer cell lines (CellTiter Aqueous One); format: cell-based; design: key: Active: Compounds with an IC50 value less than 30 μM were deemed to be active.; Not Active: Compounds with an IC50 value less than 30 μM were deemed to be active; conditions: 72 h
Description: MV4-11 cells: 96-well plates were seeded with 5×10^4 cells per well of exponentially growing human AML MV-4-11 (CRL-9591) cells and immediately treated with two-fold dilutions of test compounds, ranging from 30 μM to 0.2 μM. Triplicate wells were used for each concentration, as well as a media only and three DMSO control wells. The cells and compounds were incubated at 37° C., 5% CO2 for 72 h before adding 20 μL of the CellTiter Aqueous One Solution (Promega) to each well and incubating at 37° C., 5% CO2 for an additional 3-4 h. The absorbance was taken at 490 nm in a spectrophotometer and the percentage of proliferation relative to DMSO-treated cells was calculated after correction from the blank well. IC50 were calculated using the GraphPad Prism software.

Structure (SMILES)	melting point	FRET activity BRD4(1) [1]	Cell Proliferation activity (IC50 < 30 μM) (human AML MV-4-11 cells)
COc1cnc(-c2nc3cc(OC)cc(OC)c3c(=O)[nH]2)c(N[C@H]2CC[C@@H](NC(=O)C(C)C)CC2)c1 [Example 38, N-(cis-4-((2-(5,7-Dimethoxy-4-oxo-3,4-dihydroquinazolin-2-yl)-5-methoxypyridin-3-yl)amino)cyclohexyl)isobutyramide]	285 °C (dec.)		
COc1cc(N)cc2nc(-c3ncccc3NC3CCN(C(C)C)CC3)[nH]c(=O)c12 [Example 65, 7-amino-2-(3-((1-Isopropylpiperidin-4-yl)amino)pyridin-2-yl)-5-methoxyquinazolin-4(3H)-one]		Active	
COc1cc(OC)c2c(=O)[nH]c(-c3ncccc3NC3CCN(C(N)=O)CC3)nc2c1 [Example 54, 4-((2-(5,7-Dimethoxy-4-oxo-3,4-dihydroquinazolin-2-yl)pyridin-3-yl)amino)piperidine-1-carboxamide]	265 to 266 °C	Active	
COc1cc(OC)c2c(=O)[nH]c(-c3ncccc3N[C@H]3CC[C@@H](C(=O)N(C)C)CC3)nc2c1 [Example 53, cis-4-((2-(5,7-Dimethoxy-4-oxo-3,4-dihydroquinazolin-2-yl)pyridin-3-yl)amino)-N,N-dimethylcyclohexane-1-carboxamide]	276 to 278 °C	Active	
COc1cc(OC)c2c(=O)[nH]c(-c3ccccc3NC3CCN(C(C)C)CC3)nc2c1 [Example 10, 2-(2-((1-Isopropylpiperidin-4-yl)amino)phenyl)-5,7-dimethoxyquinazolin-4(3H)-one]	267 to 269 °C	Active	
COc1ccc(-c2nc3cc(OC)cc(OC)c3c(=O)[nH]2)c([S+]([O-])C2CCN(C)CC2)c1 (stereo not drawn) [Example 23, 5,7-Dimethoxy-2-[4-methoxy-2-(1-methylpiperidin-4-ylsulfinyl)phenyl]quinazolin-4(3H)-one]	263 to 265 °C	Active	Not Active
COc1ccc(-c2nc3cc(OC)cc(OC)c3c(=O)[nH]2)c(C(=O)N2CCN(C)CC2)c1 [Example 2, 5,7-Dimethoxy-2-(4-methoxy-2-(4-methylpiperazine-1-carbonyl)phenyl) quinazolin-4(3H)-one]		Active	
COc1cc(OC)c2c(=O)[nH]c(-c3ccc(Cl)cc3NC3CCN(C(=O)C(C)C)CC3)nc2c1 [Example 34, 2-(4-Chloro-2-((1-isobutyrylpiperidin-4-yl)amino)phenyl)-5,7-dimethoxyquinazolin-4(3H)-one]	281 to 283 °C	Active	
COc1cc(OC)c2c(=O)[nH]c(-c3ncccc3NCC3CCN(C)C3)nc2c1 (stereo not drawn) [Example 41, 5,7-Dimethoxy-2-(3-(((1-methylpyrrolidin-3-yl)methyl)amino)pyridin-2-yl)quinazolin-4(3H)-one]	157 to 159 °C	Active	
COc1cc(OC)c2c(=O)[nH]c(-c3ccc(Cl)cc3NC3CCN(C(C)C)CC3)nc2c1 [Example 33, 2-(4-Chloro-2-((1-isopropylpiperidin-4-yl)amino)phenyl)-5,7-dimethoxyquinazolin-4(3H)-one]	265 °C (dec.)		
COc1ccc(-c2nc3cc(OC)cc(OC)c3c(=O)[nH]2)c(NCCCN2CCOCC2)c1 [Example 13, 5,7-Dimethoxy-2-(4-methoxy-2-((3-morpholinopropyl)amino)-phenyl)quinazolin-4(3H)-one]	234 to 235 °C	Active	
COc1ccc(-c2nc3cc(OC)cc(OC)c3c(=O)[nH]2)c(NCCN2CCCC2)c1 [Example 11, 5,7-Dimethoxy-2-(4-methoxy-2-((2-(pyrrolidin-1-yl)ethyl)amino)phenyl)quinazolin-4(3H)-one]	226 to 228 °C	Active	
COc1ccc(-c2nc3cc(OC)cc(OC)c3c(=O)[nH]2)c(NCCN2CCCCC2)c1 [Example 12, 5,7-Dimethoxy-2-(4-methoxy-2-((2-(piperidin-1-yl)ethyl)amino)-phenyl)quinazolin-4(3H)-one]	231 to 232 °C	Active	
COc1cc(OC)c2c(=O)[nH]c(-c3cccc(NC4CCN(C(C)C)CC4)c3)nc2c1 [Example 27, 2-(3-((1-Isopropylpiperidin-4-yl)amino)phenyl)-5,7-dimethoxyquinazolin-4(3H)-one]		Active	
COc1ccc(-c2nc3cc(OC)cc(OC)c3c(=O)[nH]2)c(N(C)C2CCN(C)CC2)c1 [Example 5, 5,7-Dimethoxy-2-(4-methoxy-2-(methyl(1-methylpiperidin-4-yl)amino)phenyl) quinazolin-4(3H)-one]	217 to 218 °C		
COc1cc(OC)c2c(=O)[nH]c(-c3ncccc3NC3CCN(C(C)(C)CO)CC3)nc2c1 [Example 68, 2-(3-((1-(1-Hydroxy-2-methylpropan-2-yl)piperidin-4-yl)amino)pyridin-2-yl)-5,7-dimethoxyquinazolin-4(3H)-one]	223 to 225 °C	Active	
COc1ccc(-c2nc3cc(OC)cc(OC)c3c(=O)[nH]2)c(NCCN2CCNCC2)c1 [Example 24, 5,7-Dimethoxy-2-(4-methoxy-2-((2-(piperazin-1-yl)ethyl)amino)phenyl)quinazolin-4(3H)-one]	210 to 212 °C	Active	
COc1cc(OC)c2c(=O)[nH]c(-c3ncccc3NCCN3CCOCC3)nc2c1 [Example 49, 5,7-Dimethoxy-2-(3-((2-morpholinoethyl)amino)pyridine-2-yl)quinazolin-4(3H)-one]	168 to 170 °C	Active	
COc1ccc(-c2nc3cc(OC)cc(OC)c3c(=O)[nH]2)c(NC2CCC(C)(C)CC2)c1 [Example 29, 2-(2-((4,4-Dimethylcyclohexyl)amino)-4-methoxyphenyl)-5,7-dimethoxyquinazolin-4(3H)-one]		Active	
COc1cc(OC)c2c(=O)[nH]c(-c3ncccc3NCCCNC(C)C)nc2c1 [Example 43, 2-(3-((3-(Isopropylamino)propyl)amino)pyridin-2-yl)-5,7-dimethoxyquinazolin-4(3H)-one]	121 to 122 °C	Active	
COc1ccc(-c2nc3cc(OC)cc(OC)c3c(=O)[nH]2)c(NC2CCN(Cc3ccccc3)CC2)c1 [Example 35, 2-(2-((1-Benzylpiperidin-4-yl)amino)-4-methoxyphenyl)-5,7-dimethoxyquinazolin-4(3H)-one]		Active	
COc1cc(OC)c2c(=O)[nH]c(-c3ncccc3NC3CCN(C)CC3)nc2c1 [Example 44, 5,7-Dimethoxy-2-(3-((1-methylpiperidin-4-yl)amino)pyridine-2-yl)quinazolin-4(3H)-one]	186 to 188 °C	Active	
COc1cncc2nc(-c3ncccc3NC3CCN(C(C)C)CC3)[nH]c(=O)c12 [Example 58, 2-(3-((1-Isopropylpiperidin-4-yl)amino)pyridin-2-yl)-5-methoxypyrido[3,4-d]pyrimidin-4(3H)-one]	237 to 238 °C	Active	
COc1cnc(-c2nc3cc(OC)cc(OC)c3c(=O)[nH]2)c(NC2CCN(C)CC2)c1 [Example 40, 5,7-Dimethoxy-2-(5-methoxy-3-((1-methylpiperidin-4-yl)amino)pyridin-2-yl)quinazolin-4(3H)-one]	191 to 193 °C	Active	
COc1ccc(-c2nc3cc(OC)cc(OC)c3c(=O)[nH]2)c(NCC2CCN(C)CC2)c1 [Example 6, 5,7-Dimethoxy-2-(4-methoxy-2-(((1-methylpiperidin-4-yl)methyl)amino)phenyl) quinazolin-4(3H)-one]	264 to 265 °C	Active	
COc1ccc(-c2nc3cc(OC)cc(OC)c3c(=O)[nH]2)c(NC2CCN(C)C2)c1 (stereo not drawn) [Example 4, 5,7-Dimethoxy-2-(4-methoxy-2-((1-methylpyrrolidin-3-yl)amino)phenyl)quinazolin-4(3H)-one]	214 to 215 °C	Active	
